From paper PMC4466647, “Inhibition of non-small cell lung cancer (NSCLC) growth by a novel small molecular inhibitor of EGFR” (Oncotarget, 2015)
pIC50: −log10 of the molar value.

Biological target: EGFR (Homo sapiens, UniProt P00533)
Assay: in vitro EGFR kinase assay (Promega Kinase-Glo luminescence, […] ATP)
Format: biochemical

Chain of EGFR (P00533 25-1210): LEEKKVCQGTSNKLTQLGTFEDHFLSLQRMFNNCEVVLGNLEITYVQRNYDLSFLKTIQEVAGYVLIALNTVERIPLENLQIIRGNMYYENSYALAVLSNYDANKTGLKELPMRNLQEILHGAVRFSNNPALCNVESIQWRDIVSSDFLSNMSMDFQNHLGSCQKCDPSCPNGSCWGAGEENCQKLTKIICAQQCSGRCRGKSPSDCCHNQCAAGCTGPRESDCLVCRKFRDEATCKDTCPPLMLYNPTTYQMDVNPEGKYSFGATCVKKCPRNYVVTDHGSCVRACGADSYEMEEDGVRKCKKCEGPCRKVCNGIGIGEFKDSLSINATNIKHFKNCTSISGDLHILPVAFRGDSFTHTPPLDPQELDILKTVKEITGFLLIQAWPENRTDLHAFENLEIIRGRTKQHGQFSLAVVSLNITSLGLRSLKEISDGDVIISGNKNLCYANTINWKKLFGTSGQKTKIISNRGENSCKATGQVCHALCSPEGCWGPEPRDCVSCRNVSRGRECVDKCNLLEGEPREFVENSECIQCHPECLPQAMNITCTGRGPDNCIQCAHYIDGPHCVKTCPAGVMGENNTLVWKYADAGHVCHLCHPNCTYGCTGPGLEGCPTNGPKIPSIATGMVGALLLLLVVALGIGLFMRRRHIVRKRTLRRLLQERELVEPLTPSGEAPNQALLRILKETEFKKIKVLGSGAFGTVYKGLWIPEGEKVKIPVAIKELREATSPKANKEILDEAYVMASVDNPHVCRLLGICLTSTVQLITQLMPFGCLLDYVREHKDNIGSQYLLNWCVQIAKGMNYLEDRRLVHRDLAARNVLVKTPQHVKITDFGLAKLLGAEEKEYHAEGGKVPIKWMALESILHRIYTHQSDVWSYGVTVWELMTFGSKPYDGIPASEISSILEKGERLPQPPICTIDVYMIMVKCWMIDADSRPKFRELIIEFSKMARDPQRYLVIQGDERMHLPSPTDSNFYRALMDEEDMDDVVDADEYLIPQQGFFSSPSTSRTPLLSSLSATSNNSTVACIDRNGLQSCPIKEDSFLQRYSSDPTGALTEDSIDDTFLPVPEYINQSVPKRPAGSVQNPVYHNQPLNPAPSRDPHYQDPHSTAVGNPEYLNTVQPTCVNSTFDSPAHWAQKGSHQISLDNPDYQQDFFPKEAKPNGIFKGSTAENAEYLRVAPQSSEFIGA

pIC50: ~7.37
SMILES: O=C(Cc1ccccc1)N1CCc2c([nH]c3ccc(F)cc23)C1 [compound 308, WB-308]
